In general, melting point refers to the temperature of the solid-liquid transition.

The record followed here is patent publication US9226500B2, “Pesticidal compositions and processes related thereto” (Dow AgroSciences LLC, priority 2012, dated 2016).

Data set [1] relates to Corn Earworm (Helicoverpa zea). Briefly: Bioassay on Corn Earworm (CEW), 128-well diet tray assay. It counts as in vivo. The following applies: Table 3, Assays Results Part 1. The procedure: (§1) Certain molecules disclosed in this document were tested against BAW, CEW and CL using procedures described in the following examples. In the reporting of the results, the “BAW & CEW & CL Rating Table” was used (See Table Section).
Bioassays on CEW (Helicoverpa zea)
Bioassays on CEW were conducted using a 128-well diet tray assay. One to five second instar CEW larvae were placed in each well (3 mL) of the diet tray that had been previously filled with 1 mL of artificial diet to which 50 μg/cm^2 of the test compound (dissolved in 50 μL of 90:10 acetone-water mixture) had been applied (to each of eight wells) and then allowed to dry. Trays were covered with a clear self-adhesive cover, and held at 25° C., 14:10 light-dark for five to seven days. Percent mortality was recorded for the larvae in each well; activity in the eight wells was then averaged. The results are indicated in the table entitled “Table 3: Assay Results Part 1” (See Table Section).

Data set [2] concerns Green Peach Aphid (Myzus persicae). Briefly: Bioassay on Green Peach Aphid (GPA), foliar spray on cabbage seedlings. The following applies: for pest or weed control at 200 ppm / pest or weed control at 200 µg/mL: Myzus persicae, 72 h, read-out: GPA Rating; for pest or weed control at 200 ppm: corrected % control (Abbott), 200 ppm foliar spray on cabbage seedlings, three days; for pest or weed control at 200 µg/mL: foliar, Table 5, Prophetic Compounds Subsequently Exemplified. Format: in vivo. On the procedure: Certain molecules disclosed in this document were tested against GPA using procedures described in the following example. In the reporting of the results, the “GPA Rating Table” was used (See Table Section). Cabbage seedlings grown in 3-inch pots, with 2-3 small (3-5 cm) true leaves, were used as test substrate. The seedlings were infested with 20-50 GPA (wingless adult and nymph stages) one day prior to chemical application. Four pots with individual seedlings were used for each treatment. Test compounds (2 mg) were dissolved in 2 mL of acetone/MeOH (1:1) solvent, forming stock solutions of 1000 ppm test compound. The stock solutions were diluted 5× with 0.025% Tween 20 in water to obtain the solution at 200 ppm test compound. A hand-held aspirator-type sprayer was used for spraying a solution to both sides of […] leaves until runoff. Reference plants (solvent check) were sprayed with the diluent only containing 20% by volume of acetone/MeOH (1:1) solvent. Treated plants were held in a holding room for three days at approximately 25° C. and ambient relative humidity (RH) prior to grading. Evaluation was conducted by counting the number of live aphids per plant under a microscope. Percent Control was measured by using Abbott's correction formula (W. S. Abbott, “A Method of Computing the Effectiveness of an Insecticide” J. Econ. Entomol. 18 (1925), pp. 265-267) as follows. Corrected % Control=100*(X−Y)/X • where • X=No. of live aphids on solvent check plants and • Y=No. of live aphids on treated plants The results are indicated in the tables entitled “Table 3: Assay Results Part 1” and “Table 4: Assay Results Part 2” (See Table Section).

Data set [3] has as its system Beet Armyworm (Spodoptera exigua). Kind of data set: Bioassay on Beet Armyworm (BAW), 128-well diet tray assay. The following applies: Spodoptera exigua, 168 h; percent mortality of second instar larvae, 50 μg/cm^2 on artificial diet, five to seven days, 25° C.; read-out: BAW Rating. It counts as in vivo.
Data set [4] has as its system Cabbage Looper (Trichoplusia ni). Briefly: Bioassay on Cabbage Looper (CL), 128-well diet tray assay. Format: in vivo. Particulars: 168 h, percent mortality of second instar larvae, 50 μg/cm^2 on artificial diet, five to seven days, 25° C., read-out: CL Rating. On the procedure:
as §1
Bioassays on CL (Trichoplusia ni)
Bioassays on CL were conducted using a 128-well diet tray assay. One to five second instar CL larvae were placed in each well (3 mL) of the diet tray that had been previously filled with 1 mL of artificial diet to which 50 μg/cm^2 of the test compound (dissolved in 50 μL of 90:10 acetone-water mixture) had been applied (to each of eight wells) and then allowed to dry. Trays were covered with a clear self-adhesive cover, and held at 25° C., 14:10 light-dark for five to seven days. Percent mortality was recorded for the larvae in each well; activity in the eight wells was then averaged.
“Table 4: Assay Results Part 2” (See Table Section).

In data set [5] the test system is Beet Armyworm (Spodoptera exigua). Briefly: Bioassay on Beet Armyworm (BAW), 128-well diet tray assay. Format: in vivo. The following applies: Table 5, Performed at 12.5 μg/cm^2, read-out: BAW Rating.
Data set [6] has as its system Cabbage Looper (Trichoplusia ni). Kind of data set: Bioassay on Cabbage Looper (CL), 128-well diet tray assay. Format: in vivo. The following applies: Table 5, Performed at 12.5 μg/cm^2, read-out: CL Rating.

On to `NC(=O)c1ccc(/C=C/C(c2cc(Cl)cc(Cl)c2)C(F)(F)F)cc1` (stereo not drawn) [AC2], for which the melting point fell in the range of 110 to 112 °C.

Take `O=C(NCc1ccc(/C=C/C(c2cc(Cl)c(Cl)c(Cl)c2)C(F)(F)F)cc1C(F)(F)F)c1cccnc1` (stereo not drawn) [CC23]: the “CEW Rating” value in data set [1] is recorded as “A (50-100)”. Further, the “GPA Rating” value in data set [2] (Table 3, Assays Results Part 1) was “B (More than 0-Less than 80)”.

For `O=C(NCc1ccc(/C=C/C(c2cc(Cl)c(Cl)c(Cl)c2)C(F)(F)F)cc1Cl)Oc1ccccc1Cl` (stereo not drawn) [CC40], the “CEW Rating” value in data set [1] is given as “A (50-100)”.

`CC(C)(NC(=O)c1ccc(/C=C/C(c2cc(Cl)c(Cl)c(Cl)c2)C(F)(F)F)cc1Br)C(=O)NCC(F)(F)F` (stereo not drawn) [Compound F1, (E)-2-Bromo-N-(2-methyl-1-oxo-1-((2,2,2-trifluoroethyl)amino)propan-2-yl)-4-(4,4,4-trifluoro-3-(3,4,5-trichlorophenyl)but-1-en-1-yl)benzamide]: the pest or weed control at 50 µg/cm2, 50 µg/cm2 in data set [3] and in data set [4] was 50 to 100% in each case. Further, the pest or weed control at 200 ppm in data set [2] lay within 0 to 80%.

Regarding `C[C@@H](NC(=O)c1ccc(/C=C/[C@H](c2cc(Cl)c(Cl)c(Cl)c2)C(F)(F)F)cc1C(F)(F)F)C(=O)NCC(F)(F)F` [Compound F20A, N—((R)-1-Oxo-1-((2,2,2-trifluoroethyl)amino)propan-2-yl)-4-((E)-4,4,4-trifluoro-3-(3,4,5-trichlorophenyl)but-1-en-1-yl)-2-(trifluoromethyl)benzamide], the pest or weed control at 50 µg/cm2, 50 µg/cm2 in data set [3] and in data set [4] was 50 to 100% in each case. Further, the pest or weed control at 200 ppm in data set [2] lay within 80 to 100%.

For the compound `C[C@@H](NC(=O)c1ccc(/C=C/C(c2cc(F)cc(Br)c2)C(F)(F)F)cc1Br)C(=O)NCC(F)(F)F` (stereo partly drawn) [Compound P298], the pest or weed control at 200 µg/mL in data set [2] was 0 to 80%.

Take `O=C(CNC(=O)c1ccc(/C=C/C(c2cc(Cl)cc(C(F)(F)F)c2)C(F)(F)F)cc1Br)NCC(F)(F)F` (stereo not drawn) [Compound P1411]: the pest or weed control at 200 µg/mL in data set [2] lay within 0 to 80%.

Turning to `O=C(CNC(=O)c1ccc(/C=C/C(c2cc(Cl)c(Cl)c(Cl)c2)C(F)(F)F)cc1C(F)(F)F)NCC(F)F` (stereo not drawn) [Compound P1566], the pest or weed control at 200 µg/mL in data set [2] is 80 to 100%.

Turning to `C[C@@H](NC(=O)c1ccc(/C=C/C(c2cc(Cl)c(Cl)c(Cl)c2)C(F)(F)C(F)(F)F)cc1C(F)(F)F)C(=O)NCC(F)(F)F` (stereo partly drawn) [Compound P1601], in data set [2], the pest or weed control at 200 µg/mL fell in the range of 0 to 80%.

`CCNC(=O)[C@@H](C)NC(=O)c1ccc(/C=C/C(c2cc(Cl)c(Cl)c(Cl)c2)C(F)(F)F)cc1C` (stereo partly drawn) [Compound P1624]: in data set [2], the pest or weed control at 200 µg/mL fell in the range of 80 to 100%.

As for `CC(NC(=O)c1ccc(/C=C/C(c2cc(Cl)c(Cl)c(Cl)c2)C(F)(F)F)cc1Br)C(=O)NCCC(F)(F)F` (stereo not drawn) [Compound P1631A], in data set [2], the pest or weed control at 200 µg/mL is 0 to 80%.

On to `O=C(CNC(=O)c1ccc(/C=C/C(c2cc(Br)cc(Br)c2)C(F)(F)F)cc1Br)NCC(F)(F)F` (stereo not drawn) [Compound P1969], for which the pest or weed control at 12.5 µg/cm2, 12.5 µg/cm2 in data set [5] and in data set [6] was 50 to 100% throughout.
